Measured values as given in article doi:10.1101/2020.07.11.198341v1 (bioRxiv, 2020).

Test system: male C57Bl6J mice
Assay: Metabolic efficiency
Type: in vivo
Settings: insulin 20 nmol/kg daily i.p., n=8

insulin
nocturnal chow intake: slight decrease
